# Earlier results in US8435497B2, “Formoterol of and ciclesonide combination” (Takeda GmbH, priority 2003, dated 2013).
# How the values were obtained:
# [1] = relative to budesonide
# [2] = not given; remark: listed apart in the source
compound,measurement,setting,value
"CC(C)C(=O)OCC(=O)[C@@]12O[C@H](C3CCCCC3)O[C@@H]1C[C@H]1[C@@H]3CCC4=CC(=O)C=C[C@]4(C)[C@H]3[C@@H](O)C[C@@]12C [Ciclesonide, [11β,16α(R)]-16,17-[(Cyclohexylmethylen)bis(oxy)]-11-hydroxy-21-(2-methyl-1-oxopropoxy)pregna-1,4-dien-3,20-dion]",anti-inflammatory activity compared with budesonide,[1],higher
same,metabolism by liver oxidases,liver oxidases,very high
same,concentration of the drug in the lungs,lungs,high
same,absorption after oral administration,oral administration,only moderately absorbed
same,plasma half-life,plasma,low plasma half-life
same,systemic activity,[2]; in vivo,low systemic activity
same,systemic activity compared with budesonide,[2]; relative to budesonide,three times lower
